Legend:
[1] = system: hApoE2 Knock-in transgenic mice; assay: Effects on triglycerides and cholesterol metabolism in vivo; parameters: species or system mouse
How it was run: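 hApoE2 knock-in mice (n=6/group, matched for body weight and plasma lipids) dosed once daily by intragastric gavage in carboxymethylcellulose for 7 or 8 days at indicated doses. Terminal blood on EDTA; total cholesterol and triglycerides measured colorimetrically.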

LDL = assay: Protection against LDL oxidation by copper (conjugated diene formation); type: biochemical
Method: LDL oxidation is an important alteration and plays a predominant role in the establishment and development of atherosclerosis (Jurgens G et al., 1987). […] Unless otherwise indicated, the reagents were from Sigma (St Quentin, France). LDL were prepared according to the method described by (Havel R J et al., 1955). The solutions of test compounds were prepared at 10^−2 M concentration in bicarbonate buffer (pH 9) and diluted in PBS to obtain final concentrations ranging from 0.1 to 100 μM for a total ethanol concentration of […]. Prior to oxidation, EDTA was removed from the LDL preparation by dialysis. Oxidation then took place at 30° C. by addition of 100 μl of 16.6 μM CuSO4 solution to 160 μL of LDL (125 μg protein/ml) and 20 μl of a test compound solution. The formation of dienes, the species under observation, was followed by measuring optical density at 234 nm in the samples treated with the compounds but in the presence or absence of copper. Optical density at 234 nm was measured every 10 minutes for 8 hours in a thermostated spectrophotometer (Tecan Ultra 380). The compounds were considered to have antioxidant activity when they induced a longer lag phase and reduced the rate of oxidation and the amount of dienes formed in comparison with the control sample.

HaCat cells = assay: Antioxidant properties on cell cultures (carboxy-H2DCFDA fluorescence, AAPH stress), keratinocytes; type: cell-based, human; conditions: 25 μM for 24 h, AAPH 750 μM
Method: The reduction in the intensity of the emitted fluorescence signal was determined in cells treated with the compounds in the following manner.
Prior to stress the cells with an oxidative agent such as AAPH (CAS number 2997-92-4), cells are incubated with compounds of interest at 25 μM for 24 h. Then the culture medium is discarded and cells are rinsed two times with PBS. Cells are then incubated 30 min at 37° C. with a cell-permeant indicator for reactive oxygen species that is nonfluorescent until the acetate groups are removed by intracellular esterases and oxidation occurs within the cell 5-(and-6)-carboxy-2′,7′-dichlorodihydrofluorescein diacetate (carboxy-H2DCFDA). The probes are prepared in PBS and incubated at the final concentration of 25 μM. After the incubation with the probe, cells are rinsed and incubated another 30 min with the oxidative solution containing AAPH at 750 μM in culture medium without phenol red and serum.
The fluorescence is then measured with a fluorimeter with the following wavelength, […].
Two different cell types have been tested with the inventive compounds. Human normal primary fibroblasts and HaCat cells which are a human keratinocyte cell line.

[2] = 200, 50, 12.5 and 3.125 mg/kg/day for 8 days

## CSc1ccc(C(=O)/C=C/c2cc(C)c(OC(C)(C)C(=O)O)c(C)c2)cc1 [Compound 29, 1-[4-methylthiophenyl]-3-[3,5-dimethyl-4-carboxydimethylmethyloxyphenyl]prop-2-en-1-one]
[1]; 50 mg/kg/day for 7 or 8 days, FIGS. 4-13, 4-15, 4-17, 4-19
  plasma cholesterol: decrease
[1]; 50 mg/kg/day for 7 or 8 days, FIGS. 4-14, 4-16, 4-18, 4-20
  plasma triglycerides: decrease
[1]; [2]
  cholesterol in lipoparticle subfraction (exclusion chromatography): decrease
  plasma cholesterol level: dose-dependent decrease
  plasma triglycerides level: dose-dependent decrease
  triglycerides in lipoparticle subfraction (exclusion chromatography): decrease
LDL; 10^−4M, FIG. 1-7, copper alone 82 minutes
  lag phase of conjugated diene formation: 135 min
HaCat cells
  antioxidant properties on cell cultures (in words): antioxidant properties

## Cc1cc(/C=C/C(=O)c2ccc(Br)cc2)cc(C)c1OC(C)(C)C(=O)O [Compound 41, 1-[4-bromophenyl]-3-[3,5-dimethyl-4-carboxydimethylmethyloxyphenyl]prop-2-en-1-one]
[1]; 50 mg/kg/day for 8 days
  cholesterol in lipoparticle subfraction (exclusion chromatography): decrease
  plasma cholesterol: decrease
  plasma triglycerides: decrease
  triglycerides in lipoparticle subfraction (exclusion chromatography): decrease
LDL; 10^−4M, FIG. 1-12, copper alone 120 minutes
  lag phase of conjugated diene formation: 411 min
LDL; 10^−4M, FIG. 1-13, copper alone 1.8
  rate of conjugated diene formation: 0.54 nmol/min/mg of LDL
LDL; FIG. 1-14, copper alone 372
  maximum amount of conjugated dienes formed: 71 nmol per mg of LDL
HaCat cells
  antioxidant properties on cell cultures (in words): antioxidant properties
